Experimental findings from patent US6531148B1, “Therapeutic agents” (Takara Shuzo Co., Ltd., priority 1998, dated 2003) are described below.

Test [1] concerns Salmonella typhimulium TA1535/pSK1002. The test is classed as cell-based. As for the experimental part:
An antimutagenic activity was determined according to a method for detecting an environmental mutagen by the umu test, which can determine mutagenicity with reference to the β-galactosidase activity (Mutation Research, 147: 219 (1985)). Briefly, 25 μl of mutagen [mitomycin C (a DNA crosslinker) at 10 μg/ml or 4-nitroquinoline-1-oxide (NQO, a DNA methylating agent) at 7 μg/ml] was added to 50 μl of DGE solution at a varying concentration (1.0, 5.0, 10 or 15 mM). A culture of Salmonella typhimulium TA1535/pSK1002 in TGA medium at OD600 of 0.12 was added to the mixture to make the final volume to 1.5 ml. The mixture was then incubated at 37° C. for 2 hours with shaking. 200 μl of the culture was used to measure the β-galactosidase activity according to the method of Miller [Experiments in molecular genetics, pp. 352 (1972)].

Test [2] has as its system prostaglandin E2 production induced by LPS in RAW264.7 cells. The test is described as follows: Prostaglandin E2 production inhibition test. The test is classed as cell-based. As for the experimental part:
RAW264.7 cells were suspended in Dulbecco's modified Eagle's medium containing 10% fetal bovine serum at a concentration of 3×10^5 cells/ml. 500 μl of the suspension was added to each well of a 48-well microtiter plate and the plate was incubated at 37° C. for 6 hours in the presence of 5% CO2. 10 μl of an aqueous solution prepared by dissolving DGE at a concentration of 0.5 mM in water and sterilizing it by filtration was added to the well. The plate was incubated for additional 0.5 or 5 hours. 10 μl of 50 μg/ml aqueous LPS solution was then added to the well. After the plate was incubated for additional 12 hours, the amount of prostaglandin E2 was measured. As control groups, a group to which LPS was not added and a group to which DGE was not added were provided.
After cultivation, the amount of prostaglandin E2 in the culture supernatant was measured using Prostaglandin E2 ELISA Kit (Neogen, Code. 404110). All of the measurements were carried out in triplicate.
RAW264.7 cells were suspended in Dulbecco's modified Eagle's medium without phenol red containing 10% fetal bovine serum and 2 mM L-glutamine at a concentration of 3×10^5 cells/ml. 500 μl of the suspension was added to each well of a 48-well microtiter plate and the plate was incubated at 37° C. for 12 hours in the presence of 5% CO2. 10 μl of 50 μg/ml aqueous lipoplysaccharide solution and 10 μl of an aqueous solution prepared by dissolving DGE-GSH prepared in Example 13-(1) at a concentration of 1 mM in water and sterilizing it by filtration were then added to the well. After the plate was incubated for additional 16 hours, the amount of prostaglandin E2 was measured. As control groups, a group to which LPS was not added and a group to which DGE-GSH was not added were provided.
After cultivation, the amount of prostaglandin E2 in the culture supernatant was measured using Prostaglandin E2 ELISA Kit (Neogen, Code. 404110).

In a further test the test system is DSEK cells. The test is described as follows: Antirheumatic activity test (DSEK cell growth, WST-1). Type of test: cell-based, human. As to conditions: for antirheumatic activity (growth inhibition of rheumatoid cells) / IC50: DSEK cells; for IC50: Homo sapiens, read-out: concentration that results in the inhibition of the growth of half-cells (IC50). As for the experimental part:
DSEK cell is a fibroblast cell line established from a synovial membrane of a human patient with chronic rheumatism and is held at Department of Second Internal Medicine, Integrated Medical Center, Saitama Collage of Medicine as an in vitro rheumatoid model. DSEK cells were cultured in Iscov-MEM medium (IMDM: Gibco-BRL) containing 10% FBS (Bio Whittaker) at 37° C. in the presence of 5% CO2 to confluence. The cells were suspended in the same medium at a concentration of 3×10^4 cells/ml using a trypsin-EDTA solution (Bio Whittaker). 200 μl of the suspension was dispensed into each well of a 96-well microtiter plate (Falcon). After culturing for 5 to 7 days at which time the cells grew to 80% confluence, the medium was changed to 200 μl of the above-mentioned medium containing DGE at a 25, 50, 75, 100, 200 or 400 μM.
After incubating for 24 or 72 hours, 10 μl of Premix WST-1 (Takara Shuzo, MK400) was added to the well. The mixture was reacted at 37° C. for 3.5 hours. The degree of cell growth was expressed by a value obtained by subtracting the absorbance at 650 nm (A650) from the absorbance at 450 nm (A450).
In general terms: Formazan colour is commonly taken as a measure of viable cells.

A further test deals with HL-60 cells. The test is described as follows: Apoptosis induction test. Type of test: cell-based. As for the experimental part: (1) HL-60 cells were cultured at 37° C. in RPMI 1640 medium (Bio Whittaker) containing 10% of fetal bovine serum (JRH), which had been treated at 56° C. for 30 minutes, and suspended in RPMI 1640 medium at a concentration of 2.5×10^5 cells/4.5 ml.
500 μl of at 125 μM, 250 μM, 500 μM, 1 mM, 2 mM or 4 mM aqueous DGE solution was added to 4.5 ml of the suspension. The mixtures were incubated at 37° C. for 24 hours in the presence of 5% CO2.
The cultured cells were examined under an optical microscope.
Measurement of apoptotic cells using FACScan as described in Saibo Kogaku, Bessatsu (Cell Technology, Suppl.) Jikken Protocol Series: Apoptosis Jikken Protocol (Experimental Protocol Series: Experimental Protocols for Apoptosis) (Shujun-sha) pp. 129-130 and analysis of DNA fragmentation as described in Bio Manual UP Series: Saishin Apoptosis Jikken-ho (Bio Manual UP Series: Current Experimental Methods for Apoptosis) (Yodo-sha) pp. 61-63 were carried out using cells cultured for 24 or 48 hours in the same manner as that described above.
(2) A portion of the cells cultured for 24 hours as described in Example 2-(1) was stained with 0.4% Trypan Blue and examined under an optical microscope. The number of viable cells which were not stained and the number of dead cells which were stained blue were counted. The concentration of DGE that results in a viability of 50% [Viability50 (μM)] was determined to be 81.7 μM.

Read-outs that look alike come from different tables or passages of the source.

For the molecule “5-L-glutathion-S-yl-2-hydroxy-3,7-dioxabicyclo[2.2.2]octan-1-ol [DGE-GSH]”, the antimutagenic activity result in test [1] is “also exhibited similar activities”. In addition, the “prostaglandin E2 concentration in the medium” value in test [2] (LPS, 10 μl of 1 mM DGE-GSH per 500 μl well, 16 hours, control 63.4 ng/ml, no addition 50.3 ng/ml) was determined as 50.7 ng/mL. The “antirheumatic activity (growth inhibition of rheumatoid cells)” value with DSEK cells is recorded as “also exhibited similar activities”.

For the molecule `O=C1C=CC(CO)OC1O` [DGE, L-glycero-1,5-epoxy-1αβ,6-dihydroxy-cis-hex-3-en-2-one], the antimutagenic activity in test [1] (against NQO, DGE final concentration 0.5 mM) came out at 36%; in test [1] (against mitomycin C, DGE final concentration 0.5 mM) it was 37%. The β-Galactosidase activity in test [1] (mutagen Mitomycin C, DGE final concentration 0.03 mM, without DGE 611) is on record as 590; in test [1] (mutagen Mitomycin C, DGE final concentration 0.17 mM, without DGE 611) it was 570; in test [1] (mutagen Mitomycin C, DGE final concentration 0.33 mM, without DGE 611) it was 451; in test [1] (mutagen Mitomycin C, DGE final concentration 0.5 mM, without DGE 611), 383; in test [1] (mutagen NQO, DGE final concentration 0.03 mM, without DGE 1437) it was 1376; in test [1] (mutagen NQO, DGE final concentration 0.17 mM, without DGE 1437), 1212. For the same molecule, the β-Galactosidase activity in test [1] (mutagen NQO, DGE final concentration 0.33 mM, without DGE 1437) is 1038; in test [1] (mutagen NQO, DGE final concentration 0.5 mM, without DGE 1437) it was 926. Besides, in the test with HL-60 cells, the “antiproliferation activity against tumor cells due to the apoptosis-inducing activity” value is given as “exhibited an antiproliferation activity against tumor cells”. Also, the DNA fragmentation entry with HL-60 cells (24 or 48 hours, DGE at 50 or 100 μM) is “DNA fragmentation was observed”. Also, the “final concentration at which apoptotic cells were observed” value in the test on HL-60 cells (24 or 48 hours, FACScan) was at least 50 µM. The “final concentration at which condensation of nuclei, shrinking of cells and formation of apoptotic bodies were observed” value in the test on HL-60 cells (24 hours, optical microscope) is at least 50 µM. The IC50 with HL-60 cells (Homo sapiens, 24 hours, Trypan Blue, read-out: Viability50, concentration that results in a viability of 50%) was 81.7 µM; in the test with DSEK cells (at 24 hours), 207 µM; in the test on DSEK cells (at 72 hours) it was 112 µM. The “inhibition of prostaglandin E2 production, 5 hours pre-incubation with DGE compared with 0.5 hour” value in test [2] (DGE added before LPS) is given as “stronger inhibition of prostaglandin E2 production”. Also, the “inhibition of prostaglandin E2 production induced by LPS” value in test [2] (ELISA) is recorded as “inhibited the prostaglandin E2 production induced by LPS”. Moreover, the “Degree of cell growth (A450-650)” value in the test on DSEK cells (DGE 25 μM, culture period 24 hours, 0 μM 3.98) is listed as 3.86; in the test with DSEK cells (DGE 25 μM, culture period 72 hours, 0 μM 3.94) it was 3.33; with DSEK cells (DGE 50 μM, culture period 24 hours, 0 μM 3.98), 3.24; with DSEK cells (DGE 50 μM, culture period 72 hours, 0 μM 3.94), 3.25; with DSEK cells (DGE 100 μM, culture period 24 hours, 0 μM 3.98) it was 2.88; with DSEK cells (DGE 100 μM, culture period 72 hours, 0 μM 3.94), 2.05. For the same molecule, the “Degree of cell growth (A450-650)” value is 1.26 in the test on DSEK cells (DGE 200 μM, culture period 24 hours, 0 μM 3.98); 0.48 in the test with DSEK cells (DGE 200 μM, culture period 72 hours, 0 μM 3.94); 0.71 in the test with DSEK cells (DGE 400 μM, culture period 24 hours, 0 μM 3.98); 0.35 in the test with DSEK cells (DGE 400 μM, culture period 72 hours, 0 μM 3.94). Moreover, the “antirheumatic activity (growth inhibition of rheumatoid cells)” value in the test on DSEK cells is on record as “the growth of the rheumatoid cells was strongly inhibited”.

`O=C1C=CC(CO)OC1O` [κ-DGE, D-glycero-1,5-epoxy-1αβ,6-dihydroxy-cis-hex-3-en-2-one]: the antimutagenic activity entry in test [1] is on record as “also exhibited similar activities”. Besides, the “antiproliferation activity against tumor cells due to the apoptosis-inducing activity” value in the test with HL-60 cells is on record as “exhibited a similar activity”. Moreover, the “antirheumatic activity (growth inhibition of rheumatoid cells)” value with DSEK cells is listed as “also exhibited similar activities”.
